Results taken from US8329904B2, “Azacyclic derivatives” (Hoffmann-La Roche Inc., priority 2009, dated 2012).

The molecules below were run against T1, human HSL (Homo sapiens, UniProt Q05469) (assay: Human Hormone-Sensitive Lipase (HSL) Enzyme Inhibition Assay). Conditions: colorimetric assay, 2,3-dimercapto-1-propanol tributyrate (DMPT) substrate, 37° C. for 20 minutes, absorbance at 405 nm; read-out: HSL hum IC50.
T1 construct: overlapping PCR to generate a full length human HSL ORF with a 3′-His6 tag; His6 (C); made in house; host or cells: High 5 insect cells (baculovirus, pFast-BAC)
T1 sequence (Q05469 1-1076): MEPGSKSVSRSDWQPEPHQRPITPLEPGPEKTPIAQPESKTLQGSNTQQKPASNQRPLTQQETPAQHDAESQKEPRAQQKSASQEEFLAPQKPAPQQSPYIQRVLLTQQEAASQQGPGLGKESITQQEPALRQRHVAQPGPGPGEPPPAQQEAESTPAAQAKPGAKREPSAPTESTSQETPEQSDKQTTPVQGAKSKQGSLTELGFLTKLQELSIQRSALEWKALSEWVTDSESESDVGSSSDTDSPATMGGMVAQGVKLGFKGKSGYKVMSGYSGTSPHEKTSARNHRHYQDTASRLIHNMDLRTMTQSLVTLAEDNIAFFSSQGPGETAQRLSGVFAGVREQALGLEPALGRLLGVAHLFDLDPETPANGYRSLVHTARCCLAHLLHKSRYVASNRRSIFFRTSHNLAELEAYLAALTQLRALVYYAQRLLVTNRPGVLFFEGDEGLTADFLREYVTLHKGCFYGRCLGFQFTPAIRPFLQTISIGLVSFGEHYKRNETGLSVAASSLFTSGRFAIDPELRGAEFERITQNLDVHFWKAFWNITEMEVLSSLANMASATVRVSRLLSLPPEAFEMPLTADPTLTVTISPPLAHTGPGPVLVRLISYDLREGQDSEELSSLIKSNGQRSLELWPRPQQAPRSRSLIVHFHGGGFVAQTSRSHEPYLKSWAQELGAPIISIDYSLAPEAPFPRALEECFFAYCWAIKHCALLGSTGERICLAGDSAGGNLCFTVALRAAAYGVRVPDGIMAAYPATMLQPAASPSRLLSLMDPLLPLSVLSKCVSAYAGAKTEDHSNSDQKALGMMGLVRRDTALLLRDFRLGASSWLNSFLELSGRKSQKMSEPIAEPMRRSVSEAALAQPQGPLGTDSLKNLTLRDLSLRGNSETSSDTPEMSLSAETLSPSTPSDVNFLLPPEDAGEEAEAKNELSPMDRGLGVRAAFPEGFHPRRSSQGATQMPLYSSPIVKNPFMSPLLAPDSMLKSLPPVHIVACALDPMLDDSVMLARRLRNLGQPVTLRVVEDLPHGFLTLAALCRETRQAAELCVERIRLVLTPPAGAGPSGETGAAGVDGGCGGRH
Assay type: biochemical
Summary of the method: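 Colorimetric thioester hydrolysis: compounds in DMSO series mixed with DMPT (1.5 mM) in MOPS pH 7.2 with BSA, then baculovirus-expressed His6-tagged full-length human HSL added, 37° C, 20 min. DTNB plus detergents added, 15 min room temperature, absorbance at 405 nm.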

Row | SMILES | IC50
1 | CCN(Cc1ccccc1)C(=O)N1CCC2(CC1)CCN(c1ccc(OC(F)(F)F)cc1)C2=O [Example 310, 1-Oxo-2-(4-trifluoromethoxy-phenyl)-2,8-diaza-spiro[4.5]decane-8-carboxylic acid benzyl-ethyl-amide] | 170 nM
2 | Cc1cccc(Cl)c1S(=O)(=O)N1CCC2(CCN(c3ccc(OC(F)(F)F)cc3)C2=O)CC1 [Example 312, 8-(2-Chloro-6-methyl-benzenesulfonyl)-2-(4-trifluoromethoxy-phenyl)-2,8-diaza-spiro[4.5]decan-1-one] | 80 nM
3 | CC(C)CN(C)C(=O)N1CCC2(CC1)CCN(c1ccc(C3CC3)cc1)C2=O [Example 313, 2-(4-Cyclopropyl-phenyl)-1-oxo-2,8-diaza-spiro[4.5]decane-8-carboxylic acid isobutyl-methyl-amide] | 90 nM

The remaining molecules from weak to strong by IC50, led by results:

Row | IC50 | SMILES
4 | 130 nM | CCCCN(C)C(=O)N1CCC2(CC1)CCN(c1ccc(C3CC3)cc1)C2=O [Example 314, 2-(4-Cyclopropyl-phenyl)-1-oxo-2,8-diaza-spiro[4.5]decane-8-carboxylic acid butyl-methyl-amide]
5 | 120 nM | CCN(C(=O)N1CCC2(CC1)CCN(c1ccc(OC(F)(F)F)cc1)C2=O)c1ccc(Cl)cc1 [Example 309, 1-Oxo-2-(4-trifluoromethoxy-phenyl)-2,8-diaza-spiro[4.5]decane-8-carboxylic acid (4-chloro-phenyl)-ethyl-amide]
6 | 60 nM | CCN(C(=O)N1CCC2(CC1)CCN(c1ccc(OC(F)(F)F)cc1)C2=O)c1ccc(OC(F)(F)F)cc1 [Example 311, 1-Oxo-2-(4-trifluoromethoxy-phenyl)-2,8-diaza-spiro[4.5]decane-8-carboxylic acid ethyl-(4-trifluoromethoxy-phenyl)-amide]
